Test results from patent US11852633B2 (priority 2017, dated 2023).

Settings: K2CO3 5 mM, CH3CN:water (4:1), 1 hour

**Q.** Which “CD response with other L-amino acids (phenylalanine, alanine, serine, tyrosine) versus L-Cys” value (probe 2.50 mM, amino acid 1.25 mM) does the source give for `O=[N+]([O-])c1ccc(S(=O)(=O)Oc2ccccc2)c([N+](=O)[O-])c1` [probe 1, phenyl 2,4-dinitrobenzenesulfonate] here?
**A.** remained CD silent with the exception of the cysteine solution

**Q.** And the “CD response with biothiols L-homocysteine and L-glutathione” value (probe 2.5 mM, biothiol 1.25 mM)?
**A.** no induction of a CD signal
